Reference: patent US3984432A, “Color photographic recording material” (priority 1973, dated 1976)

Assay: Absorption maximum after colour development in a photographic silver halide layer according to Use Example I
Type: physicochemical
Details: for Abs.max., first of two maxima (subsidiary maximum) / Abs.max., second of two maxima (absorption maximum): pyrazolone coupling agents
Procedure: The compounds of the formulae which follow are prepared according to methods which are in themselves known, from the corresponding 4-equivalentcoupling agents (the corresponding compounds with hydrogen in the position marked with *, in place of the substituents drawn). With regard to methods of manufacture, compare DT-OS or DT-AS 1,236,332, 2,043,271, 1,547,672 or 1,187,477. Next to the formula, the absorption maximum in nm is specified in each case (see footnote to Table I). ##SPC8##
*)After colour development of the coupling agents in a photographic silve
halide layer according to Use Example I
0.3 mmol of coupling agent of the formula (215) is dissolved in 2.0 ml of tricresyl phosphate/methylene chloride (3:7). The methylene chloride is evaporated off, 6.0 ml of an 8% strength aqueous solution of sodium isopropylnaphthalene-sulphonate, 20.0 ml of 6% strength gelatine solution and 3.4 ml of water are added and the mixture is adjusted to pH 6.5 and emulsified for 5 minutes by means of an ultrasonic apparatus with an output of 100 watt.
5.0 of coupling agent emulsion freshly treated with ultrasonics, 3.3 ml of silver bromide emulsion of pH 6.5, containing 1.4% of silver and 6.0% of gelatine, 2.0 ml of 1% strength aqueous solution of the hardener of the formula [formula] and 1.7 ml of water are mixed with one another and cast at 40°C on a substrated glass plate of size 13 cm × 18 cm. After solidifying at 10° C, the plate is dried in a drying cabinet with circulating air at 32° C.
A strip cut to 4.0 cm × 6.5 cm is exposed to 500 Lux/cm^2 under a step wedge for 2 seconds and is subsequently treated at 24° C as follows: […]

Row | SMILES | Abs.max., first of two maxima (subsidiary maximum) [nm] | Abs.max., second of two maxima (absorption maximum) [nm] | Abs.max. (single maximum) [nm]
1 | CCCCC(CC)COP(=O)(CCCOc1cccc(C(=O)Nc2cccc(C(=O)NC3=NN(c4cccc(Cl)c4)C(=O)C3)c2)c1)OCC(CC)CCCC (stereo not drawn) [(256)] | 438 | 534 | –
2 | CCCCC(CC)COP(=O)(CCCOc1cccc(OCC(=O)Nc2cccc(C(=O)NC3=NN(c4c(Cl)cc(Cl)cc4Cl)C(=O)C3)c2)c1)OCC(CC)CCCC (stereo not drawn) [(270)] | 438 | 544 | –
3 | CCOP(=O)(OCC)C(C)(C)NC(=O)c1cc(NC(=O)CC(=O)c2ccccc2)cc(C(=O)NC(C)(C)P(=O)(OCC)OCC)c1 [(111)] | – | – | 440
4 | CC(C)OP(=O)(OC(C)C)C1(C)CC(NC(=O)c2ccc(Cl)c(NC(=O)CC(=O)c3ccc(C(C)(C)C)cc3)c2)CC(C)(C)C1 (stereo not drawn) [(140)] | – | – | 439
5 | CCCCOP(=O)(CCCOc1cc(OCCCP(=O)(OCCCC)OCCCC)cc(C(=O)Nc2cccc(NC3=NN(c4ccccc4)C(=O)C3)c2)c1)OCCCC [(423)] | 430 | 530 | –
6 | CCOP(=O)(CCCCCOc1cccc(C(=O)Nc2ccc(C(=O)NC3=NN(c4c(Cl)cc(Cl)cc4Cl)C(=O)C3)cc2)c1)OCC [(207)] | 434 | 540 | –
7 | CCCCOP(=O)(CCCOc1cc(OCCCP(=O)(OCCCC)OCCCC)cc(C(=O)Nc2cccc(NC3=NN(c4ccc(S(C)(=O)=O)cc4)C(=O)C3)c2)c1)OCCCC [(430)] | 430 | 540 | –
8 | CCCCOP(=O)(CCCOc1cccc(C(=O)Nc2cccc(C(=O)NC3=NN(c4ccc(S(C)(=O)=O)cc4)C(=O)C3)c2)c1)OCCCC [(275)] | 440 | 538 | –
9 | CCCCC(CC)COP(=O)(CCCOc1cc(OCCCP(=O)(OCC(CC)CCCC)OCC(CC)CCCC)cc(C(=O)Nc2cccc(C(=O)NC3=NN(c4ccccc4)C(=O)C3)c2)c1)OCC(CC)CCCC (stereo not drawn) [(235)] | 440 | 532 | –
10 | CCCCOP(=O)(Cc1ccc(CP(=O)(OCCCC)OCCCC)c(NC(=O)c2ccc(OC)c(NC(=O)CC(=O)c3ccc(C(C)(C)C)cc3)c2)c1)OCCCC [(136)] | – | – | 440
11 | CCCCOP(=O)(CCCOc1cc(OCCCP(=O)(OCCCC)OCCCC)cc(C(=O)Nc2ccc(Cl)c(NC(=O)CC(=O)C(C)(C)C)c2)c1)OCCCC [(116)] | – | – | 444
12 | CC(C)CCOP(=O)(CCCc1ccc(NC(=O)CC(=O)c2ccc(Cl)cc2)cc1)OCCC(C)C [(132)] | – | – | 438
13 | CCCCC(CC)COP(=O)(CCCNC(=O)c1ccc(Cl)c(NC(=O)CC(=O)c2ccccc2OC)c1)OCC(CC)CCCC (stereo not drawn) [(133)] | – | – | 436
14 | COc1ccc(C(=O)CC(=O)Nc2ccc(OP(=O)(Oc3ccccc3)C(C)(C)C)cc2)cc1 (stereo not drawn) [(130)] | – | – | 437
15 | CCCCOP(=O)(CCCOc1cc(OCCCP(=O)(OCCCC)OCCCC)cc(C(=O)Nc2cccc(NC3=NN(c4c(Cl)cc(Cl)cc4Cl)C(=O)C3)c2)c1)OCCCC [(424)] | 427 | 532 | –
16 | CCOP(=O)(CCCOc1cccc(C(=O)Nc2cccc(NC3=NN(c4c(Cl)cc(Cl)cc4Cl)C(=O)C3)c2)c1)OCC [(415)] | 426 | 532 | –
17 | CCCCC(CC)COP(=O)(CCCOc1cccc(C(=O)Nc2ccc(NC3=NN(c4ccccc4)C(=O)C3)cc2)c1)OCC(CC)CCCC (stereo not drawn) [(420)] | 428 | 529 | –
18 | CCOP(=O)(OCC)C(C)(C)NC(=O)c1cccc(NC(=O)CC(=O)c2ccccc2)c1 [(108)] | – | – | 440
19 | CCCCOP(=O)(CCCOc1cc(OCCCP(=O)(OCCCC)OCCCC)cc(C(=O)NC2=NN(c3nc4ccccc4s3)C(=O)C2)c1)OCCCC [(257)] | 430 | 537 | –
20 | CC(C)OP(=O)(CCCOc1cccc(C(=O)Nc2cccc(C(=O)NC3=NN(c4c(Cl)cc(Cl)cc4Cl)C(=O)C3)c2)c1)OC(C)C [(232)] | 434 | 541 | –
21 | CCCCOP(=O)(CCCc1ccc(NC(=O)CC(=O)c2ccc(Cl)cc2)cc1)OCCCC [(125)] | – | – | 440

Row | SMILES | Abs.max., first of two maxima (subsidiary maximum) [nm] | Abs.max., second of two maxima (absorption maximum) [nm] | Abs.max. (single maximum) [nm]
22 | CCOP(=O)(CCCOc1cccc(C(=O)Nc2cccc(C(=O)NC3=NN(c4ccccc4)C(=O)C3)c2)c1)OCC [(223)] | 440 | 534 | –
23 | CCOP(=O)(CCCc1ccc(NC(=O)CC(=O)c2ccccc2)cc1)OCC [(101)] | – | – | 437
24 | CCCCC(CC)COP(=O)(CCCOc1cccc(C(=O)Nc2cccc(C(=O)NC3=NN(c4c(Cl)cc(Cl)cc4OC)C(=O)C3)c2)c1)OCC(CC)CCCC (stereo not drawn) [(268)] | 438 | 540 | –
25 | CCCCOP(=O)(OCCCC)C(CC)OC(=O)c1ccc(NC(=O)CC(=O)c2ccccc2OC)cc1 (stereo not drawn) [(142)] | – | – | 435
26 | CC(C)OP(=O)(OC(C)C)C1(C)CC(NC(=O)c2ccc(Oc3ccccc3)c(NC(=O)CC(=O)c3ccc(Cl)cc3)c2)CC(C)(C)C1 (stereo not drawn) [(144)] | – | – | 441
27 | CCOP(=O)(CCCOc1cccc(C(=O)Nc2ccc(NC3=NN(c4ccccc4)C(=O)C3)cc2)c1)OCC [(416)] | 426 | 528 | –
28 | CCCCOP(=O)(CCCOc1cc(OCCCP(=O)(OCCCC)OCCCC)cc(C(=O)Nc2cccc(C(=O)NC3=NN(c4ccccc4)C(=O)C3)c2)c1)OCCCC [(229)] | 440 | 532 | –
29 | CCCCOP(=O)(CCCOc1cccc(NC2=NN(c3ccccc3)C(=O)C2)c1)OCCCC [(412)] | 430 | 528 | –
30 | CCCCOP(=O)(CCCOc1cc(OCCCP(=O)(OCCCC)OCCCC)cc(C(=O)Nc2cc(Cl)c(C)c(Cl)c2O)c1)OCCCC [(701)] | – | – | 662
31 | CCCCOP(=O)(CCCOc1cc(OCCCP(=O)(OCCCC)OCCCC)cc(C(=O)Nc2cccc(C(=O)NC3=NN(c4c(Cl)cc(Cl)cc4Cl)C(=O)C3)c2)c1)OCCCC [(222)] | 434 | 544 | –
32 | CCCCOP(=O)(CCCOc1cccc(C(=O)Nc2cccc(C(=O)NC3=NN(c4ccccc4)C(=O)C3)c2)c1)OCCCC [(224)] | 440 | 534 | –
33 | CC(C)(C)P(=O)(Oc1ccccc1)Oc1ccc(NC(=O)CC(=O)c2ccccc2)cc1 (stereo not drawn) [(129)] | – | – | 440
34 | CCOP(=O)(CCCc1ccc(NC2=NN(c3c(Cl)cc(Cl)cc3Cl)C(=O)C2)cc1)OCC [(408)] | 426 | 530 | –
35 | CCOP(=O)(CCCOc1ccc(C(=O)Nc2ccc(C(=O)NC3=NN(c4c(Cl)cc(Cl)cc4Cl)C(=O)C3)cc2)cc1)OCC [(203)] | 434 | 539 | –
36 | CCOP(=O)(CCCOc1cc(OCCCP(=O)(OCC)OCC)cc(C(=O)NC2=NN(c3c(Cl)cc(Cl)cc3Cl)C(=O)C2)c1)OCC [(209)] | 436 | 540 | –
37 | CCOP(=O)(CCCCCOc1cc(OCCCCCP(=O)(OCC)OCC)cc(C(=O)NC2=NN(c3c(Cl)cc(Cl)cc3Cl)C(=O)C2)c1)OCC [(214)] | 432 | 540 | –
38 | CCCCC(CC)COP(=O)(CCCOc1ccc(C(=O)Nc2cccc(C(=O)NC3=NN(c4c(Cl)cc(Cl)cc4Cl)C(=O)C3)c2)c(OCCCP(=O)(OCC(CC)CCCC)OCC(CC)CCCC)c1)OCC(CC)CCCC (stereo not drawn) [(251)] | 436 | 540 | –
39 | CCCCOP(=O)(CCCOc1cc(OCCCP(=O)(OCCCC)OCCCC)cc(C(=O)Nc2ccc(Cl)c(NC3=NN(c4c(Cl)cc(Cl)cc4Cl)C(=O)C3)c2)c1)OCCCC [(428)] | 430 | 537 | –
40 | CCCCC(CC)COP(=O)(CCCOc1cccc(C(=O)Nc2ccc(C(=O)NC3=NN(c4c(Cl)cc(Cl)cc4Cl)C(=O)C3)cc2)c1)OCC(CC)CCCC (stereo not drawn) [(215)] | 434 | 540 | –
41 | CCCCOP(=O)(CCCOc1cc(OCCCP(=O)(OCCCC)OCCCC)cc(C(=O)NC2=NN(c3c(C)c(Cl)c(OC)c(Cl)c3Cl)C(=O)C2)c1)OCCCC [(254)] | 438 | 540 | –
42 | CCCCOP(=O)(CCCOc1cc(OCCCP(=O)(OCCCC)OCCCC)cc(C(=O)Nc2ccc(C)c(NC(=O)CC(=O)C(C)(C)C)c2)c1)OCCCC [(117)] | – | – | 445
